For one test, the species on record is Rattus norvegicus. In words: animal or person. The settings on record: 3 h.
Test [1] deals with T1, Signal transducer and activator of transcription 5B (Homo sapiens, UniProt P51692).
T1 sequence (P51692 whole entry): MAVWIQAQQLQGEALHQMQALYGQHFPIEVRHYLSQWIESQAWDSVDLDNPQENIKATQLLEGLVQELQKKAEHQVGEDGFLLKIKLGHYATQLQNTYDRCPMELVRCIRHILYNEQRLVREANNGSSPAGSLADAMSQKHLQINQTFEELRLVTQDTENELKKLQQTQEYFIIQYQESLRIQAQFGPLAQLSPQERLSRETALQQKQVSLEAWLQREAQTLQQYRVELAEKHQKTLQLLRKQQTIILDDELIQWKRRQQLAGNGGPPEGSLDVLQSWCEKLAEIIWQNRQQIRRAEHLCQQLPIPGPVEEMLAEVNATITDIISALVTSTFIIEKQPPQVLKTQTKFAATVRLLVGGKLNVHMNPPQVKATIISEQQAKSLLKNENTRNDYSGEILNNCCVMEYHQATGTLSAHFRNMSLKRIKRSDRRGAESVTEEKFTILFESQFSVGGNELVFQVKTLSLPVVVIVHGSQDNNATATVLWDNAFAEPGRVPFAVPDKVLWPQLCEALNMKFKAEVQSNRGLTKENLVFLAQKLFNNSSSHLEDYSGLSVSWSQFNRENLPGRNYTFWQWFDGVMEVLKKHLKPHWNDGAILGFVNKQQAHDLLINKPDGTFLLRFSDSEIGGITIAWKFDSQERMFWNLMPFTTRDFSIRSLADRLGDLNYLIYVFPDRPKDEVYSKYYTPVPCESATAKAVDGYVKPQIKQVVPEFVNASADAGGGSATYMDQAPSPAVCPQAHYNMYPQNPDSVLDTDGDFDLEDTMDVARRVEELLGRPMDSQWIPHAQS
In words: Binding affinity to MBP-tagged recombinant STAT5b-SH2 domain (unknown origin) using carboxyfluoresceine-labeled phosphotyrosine octapeptide incubated for 12 hrs by fluorescence polarization assay. Background: Fluorescence polarisation rises when a labelled molecule tumbles more slowly, as on binding a larger partner.

Test [2] is described as follows: Inhibition of Enterovirus A71 3c protease.
A further test relates to Streptococcus pneumoniae. The test is described as follows: Antimicrobial activity against Streptococcus pneumoniae ATCC 49619. The class given is functional.
The target in another test is Bacterial 70S ribosome. In words: Binding affinity to Escherichia coli 70S ribosome assessed as reduction in BODIPY-Erythromycin A binding incubated for 1 hr by fluorescence polarization assay. The format is subcellular.
The target of test [3] is Bacterial 70S ribosome (Bacteria) (UniProt P0A7V0+P60723+P0AG67+P0A7R5+P0A7R9+P0A7S3+P0A7S9+P0AG59+P0ADZ4+P0A7T3+P0AG63+P0A7T7+P0A7U3+P0A7U7+P68679+P0A7V3+P0A7V8+P0A7W1+P02358+P02359+P0A7W7+P0A7X3+P0A7J3+P0A7J7+P0AA10+P0ADY3+P02413+P0ADY7+P0AG44+P0C018+P0A7K6+P0A7L0+P0A7L3+P0AG48+P61175+P0ADZ0+P60624+P68919+P0A7L8+P0A7M2+P0A7M6+P60422+P0AG51+P0A7N1+P0A7M9+P0A7N4+P0A7N9+P0A7P5+P0A7Q1+Q2EEQ2+P0A7Q6+P60438+P62399+P0AG55+P0A7K2). The test is described as follows: Inhibition of 70S ribosome in Escherichia coli cell free system assessed as reduction in protein synthesis by measuring EmGFP synthesis at 1 uM by cell-free translation inhibition method relative to control. The class given is subcellular.

Values after ≈ are worked out from the molar mass of the structure shown.

Description for Rattus norvegicus: Antiinflammatory activity in rat model of carrageenan-induced paw edema model after 3 hrs

A word on the ED50: it is the dose at which the effect has come halfway, by size or by number of responders. Lower therefore signals greater potency. `Cc1cc(-n2cc(-c3ccc(N)cc3)nn2)n(-c2ccc(S(C)(=O)=O)cc2)n1`: it took a dose of 0.12 mg/kg to reach the 50% effect level in the test listed under Rattus norvegicus (ED50).
The term IC50 denotes the point on the concentration scale where inhibition reaches its midpoint. Regarding `COC(=O)c1nonc1NCn1cnnn1`, in test [1], the half-maximal inhibitory concentration (IC50) was determined as 37 µM.
Broadly, the Ki is the equilibrium dissociation constant of an inhibitor or competing ligand from its target. In the case of `COC(=O)c1nonc1NCn1nnnc1-c1cccc(OC(F)(F)F)c1`, in test [1], the Ki is > 5000 µM.
`Cc1cc(-n2cc(-c3ccc(F)cc3)nn2)n(-c2ccc(S(C)(=O)=O)cc2)n1` had a median effective dose (ED50) in the test listed under Rattus norvegicus of 0.44 mg/kg.
Regarding `Nc1nonc1C(=O)O`, in test [1], the inhibition constant Ki worked out at 420 µM.
`CCOC(=O)CC[C@H](C[C@@H]1CCCNC1=O)NC(=O)[C@H](Cc1ccccc1)NC(=O)C(O)CC(=O)c1ccncc1` (stereo not given in full): the IC50 in test [2] stood at 1.43 µM.
For `O=C(O)c1nonc1NCn1nnnc1-c1ccc(F)cc1`, the inhibition constant Ki in test [1] amounted to 0.6 µM.
Turning to `O=C[C@H](C[C@@H]1CCCNC1=O)NC(=O)[C@H](Cc1ccccc1)NC(=O)C(O)CC(=O)c1ccncc1` (stereo not given in full), the IC50 in test [2] is 0.15 µM.
As a reminder, the MIC is the lowest concentration that inhibits growth of the organism. A lower MIC goes with greater potency. The Kd is the equilibrium constant for the complex coming apart. For orientation: inhibition means the relative decrease from the control value, in per cent. `CC[C@H]1OC(=O)[C@@](C)(F)C(=O)[C@H](C)[C@@H](O[C@@H]2O[C@H](C)C[C@H](N(C)C)[C@H]2O)[C@](C)(OC)C[C@@H](C)C(=O)[C@H](C)[C@H]2N(CCCCn3cc(-c4cccc(N)c4)nn3)C(=O)O[C@]12C` [SOLITHROMYCIN]: 6 ng/mL (≈ 7.1 nM) was the least that counted as inhibitory with Streptococcus pneumoniae (MIC). On Bacterial 70S ribosome, the Kd was determined as 0.0006 µM. In test [3], the inhibition came to 47%.
As to `Cc1cc(C(=O)N[C@@H](Cc2ccc(F)cc2)C(=O)N[C@H](C=O)C[C@@H]2CCCNC2=O)no1`, the IC50 in test [2] amounted to 0.32 µM.
As for `O=C(O)c1nonc1NCn1ccnn1`, in test [1], the inhibition constant (Ki) is > 5000 µM.
Same read-out and setting: in the case of `O=C(O)c1nonc1NCn1cncn1` it was > 5000 µM.
As for `O=C(O)c1nonc1NCn1nnnc1-c1cccc(F)c1`, the Ki in test [1] is > 5000 µM.
The same measure, in the same setting: the same measure for `O=C(O)c1nonc1NCn1nnnc1-c1ccccc1`: > 5000 µM.
In the test with Streptococcus pneumoniae, `CC[C@H]1OC(=O)[C@@](C)(F)C(=O)[C@H](C)[C@@H](O[C@@H]2O[C@H](C)C[C@H](N(C)C)[C@H]2O)[C@](C)(OC)C[C@@H](C)C(=O)[C@H](C)[C@H]2N(CCCCn3cc(-c4cccc(N(C)C)c4)nn3)C(=O)O[C@]12C` showed a minimum inhibitory concentration (MIC) of 5 ng/mL (≈ 5.73 nM). In addition, at Bacterial 70S ribosome, the Kd was determined as 0.0014 µM. In addition, the inhibition in test [3] came to 37%.
Regarding `CCOC(=O)/C=C/[C@H](C[C@@H]1CCCNC1=O)NC(=O)[C@H](Cc1ccccc1)NC(=O)C=O`, in test [2], 16.4 µM corresponded to half-maximal inhibition (IC50).
`O=C(O)c1nonc1NCn1nnnc1-c1cccc(C(F)(F)F)c1`: the Ki in test [1] was > 5000 µM.
For `CC[C@H]1OC(=O)[C@@](C)(F)C(=O)[C@H](C)[C@@H](O[C@@H]2O[C@H](C)C[C@H](N(C)C)[C@H]2O)[C@](C)(OC)C[C@@H](C)C(=O)[C@H](C)[C@H]2N(CCCCN=[N+]=[N-])C(=O)O[C@]12C`, the MIC against Streptococcus pneumoniae worked out at 2 ng/mL (≈ 2.75 nM). In addition, the equilibrium dissociation constant (Kd) on Bacterial 70S ribosome was 0.0021 µM.
As to `O=C(O)c1nonc1NCn1nnc2ccccc21`, the Ki in test [1] was > 5000 µM.
Still for that read-out and setting: in the case of `O=C(O)c1nonc1NCn1cccn1` it was > 5000 µM.

Source of the values: ChEMBL document CHEMBL4354833, “Kinetic Target-Guided Synthesis: Reaching the Age of Maturity” (J Med Chem, 2020).
